Laboratory results as given in US20100063085A1, “METHOD OF TREATING LEARNING IMPAIRMENT IN DOWN'S SYNDROME SUBJECTS” (University Court of The University of Dundee, priority 2008, published 2010).
Read-outs that look alike come from different tables or passages of the source.

Tests used:
Test in all cases: biochemical
ERK8 = target: T1, ERK8 (Homo sapiens, UniProt Q8TD08); conditions: read-out: ERK8 activity as percentage of control without inhibitor
T1 sequence (Q8TD08 1-544): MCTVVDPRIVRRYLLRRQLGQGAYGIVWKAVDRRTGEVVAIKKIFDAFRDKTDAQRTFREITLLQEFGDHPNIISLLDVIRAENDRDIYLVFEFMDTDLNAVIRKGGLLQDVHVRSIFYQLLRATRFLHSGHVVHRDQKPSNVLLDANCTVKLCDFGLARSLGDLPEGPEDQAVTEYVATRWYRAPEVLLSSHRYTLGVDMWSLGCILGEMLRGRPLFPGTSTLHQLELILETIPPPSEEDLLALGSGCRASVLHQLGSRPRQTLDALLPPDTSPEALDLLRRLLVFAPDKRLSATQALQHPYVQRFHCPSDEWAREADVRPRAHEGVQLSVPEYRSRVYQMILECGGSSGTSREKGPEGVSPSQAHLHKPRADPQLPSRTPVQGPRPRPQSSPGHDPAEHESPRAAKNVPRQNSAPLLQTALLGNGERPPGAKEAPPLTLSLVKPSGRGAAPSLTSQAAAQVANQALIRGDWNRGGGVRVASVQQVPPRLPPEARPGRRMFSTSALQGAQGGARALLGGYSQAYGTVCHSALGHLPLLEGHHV
Experimental: (§1) All assays (25.5 μl) were carried out at room temperature (21° C.) and were linear with respect to time and enzyme concentrations under the conditions used. Assays were performed for 30 minutes except assays for LCK and PKB which were performed for 15 minutes using Multidrop Micro reagent dispensers (Thermo Electron Corporation, Waltham, Mass. 02454, USA) in a 96-well format. The concentration of […] [γ-^33P] ATP (800 cpm/pmol) in the assays was one of three concentrations (5, 20 or 50 μM) in order to be at or below Km for ATP for the enzyme. Assays were initiated with MgATP and stopped by addition of 5 μl of 0.5M orthophosphoric acid. Assays were then harvested onto P81 filterplates using a unifilter harvester (PerkinElmer, Boston, Mass. 02118, USA), with a wash buffer of 50 mM orthophosphoric acid. Filterplates were then air dried overnight. 10 μl of Microscint O was added per well prior to counting for radioactivity.
(§2) The following kinases were assayed against the substrates indicated. Aurora B was assayed against the substrate peptide […] (300 μM), ERK8 and MST-2 were both assayed against MBP (0.33 mg/ml). IKKβ was assayed against the substrate peptide […] (300 μM), JNK3 was assayed against 3 μM ATF2[19-96]. MAPKAP-K3 and PKD1 were both assayed against […] (30 μM), MARK3 was assayed against CHKtide ([…]) substrate peptide (300 μM). MNK1 and MNK2 were both assayed against eIF4E protein (0.5 mg/ml). NEK7 was assayed against […] (300 μM), PIM2 was assayed against […] (300 μM), ΔPH PKBβ-S474D was assayed against Crosstide (30 μM), PLK1 was assayed against […] (300 μM). PRK2 was assayed against Long S6 peptide, […] (30 μM), RSK2 was assayed against […] (30 μM), SRC was assayed against cdc2 peptide, […], (300 μM) and SRPK1 was assayed against peptide […] (300 μM). All enzymes were diluted in 50 mM Tris/HCl pH 7.5, 0.1 mM EGTA, 1 mg/ml BSA, 0.1% β-mercaptoethanol buffer and assayed in an incubation containing 50 mM Tris/HCl pH7.5, 0.1 mM EGTA, 0.1% β-mercaptoethanol, CAMK-1 (5-20 mU) diluted in 50 mM Tris/HCl pH 7.5, 0.1 mM EGTA, 1 mg/ml BSA, 0.1% β-mercaptoethanol is assayed against substrate peptide […] in an incubation containing 50 mM Tris/HCl pH 7.5, 0.1 mM EGTA, 0.5 mM CaCl2, 0.3 μM calmodulin, 0.1% β-mereaptoethanol, 300 μM substrate peptide, 10 mM magnesium acetate and 0.05 mM [^33P-γ-ATP] (500-1000 cpm/pmole). EF2K (5-20 mU) diluted in 50 mM Hepes pH 6.6, 0.1% β-mercaptoethanol, 1 mg/ml BSA is assayed against a substrate peptide […] in an incubation containing 50 mM Hepes pH 6.6, 0.2 mM CaCl2, 0.3 μM Calmodulin, 0.05% b-mercaptoethanol, 300 μM substrate peptide, 10 mM magnesium acetate and 0.05 mM [^33P-γ-ATP] (500-1000 cpm/pmole).

MNK2 = MNK2 (Homo sapiens, UniProt Q9HBH9); conditions: read-out: MNK2 activity as percentage of control without inhibitor
Chain of MNK2 (Q9HBH9 whole entry, species assumed): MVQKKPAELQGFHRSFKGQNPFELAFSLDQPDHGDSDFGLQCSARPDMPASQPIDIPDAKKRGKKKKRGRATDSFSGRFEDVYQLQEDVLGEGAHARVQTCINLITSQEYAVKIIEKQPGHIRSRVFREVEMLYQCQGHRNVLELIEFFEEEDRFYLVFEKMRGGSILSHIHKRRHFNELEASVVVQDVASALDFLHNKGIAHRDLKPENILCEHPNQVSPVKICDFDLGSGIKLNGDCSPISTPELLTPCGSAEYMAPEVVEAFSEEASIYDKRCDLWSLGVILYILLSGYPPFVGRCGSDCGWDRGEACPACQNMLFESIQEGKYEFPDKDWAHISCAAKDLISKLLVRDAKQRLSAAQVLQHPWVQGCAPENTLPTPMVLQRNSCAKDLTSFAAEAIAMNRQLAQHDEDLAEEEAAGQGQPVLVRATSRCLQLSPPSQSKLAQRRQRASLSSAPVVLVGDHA
Experimental: as §1, §2

CAMK-1 = CAMK-1 (Homo sapiens, UniProt Q14012); conditions: read-out: CAMK-1 activity as percentage of control without inhibitor
Experimental: as §1, §2

MST2 = target: T2, MST2 (Homo sapiens, UniProt Q13188); conditions: read-out: MST2 activity as percentage of control without inhibitor
T2 sequence (Q13188 1-491): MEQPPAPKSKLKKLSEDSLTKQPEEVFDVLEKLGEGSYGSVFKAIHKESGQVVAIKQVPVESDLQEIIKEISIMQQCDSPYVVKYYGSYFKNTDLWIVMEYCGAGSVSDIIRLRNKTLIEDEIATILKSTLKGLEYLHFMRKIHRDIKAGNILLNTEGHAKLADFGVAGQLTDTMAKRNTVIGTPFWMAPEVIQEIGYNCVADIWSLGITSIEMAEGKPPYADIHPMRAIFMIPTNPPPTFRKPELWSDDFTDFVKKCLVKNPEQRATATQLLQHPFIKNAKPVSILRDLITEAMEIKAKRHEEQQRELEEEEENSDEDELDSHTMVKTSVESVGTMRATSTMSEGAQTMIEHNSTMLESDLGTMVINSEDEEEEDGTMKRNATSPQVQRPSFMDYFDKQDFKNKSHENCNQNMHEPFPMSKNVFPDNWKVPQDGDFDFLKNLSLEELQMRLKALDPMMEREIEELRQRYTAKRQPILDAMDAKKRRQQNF
Experimental: as §1, §2

MNK1 = MNK1 (Homo sapiens, UniProt Q9BUB5); conditions: read-out: MNK1 activity as percentage of control without inhibitor
Chain of MNK1 (Q9BUB5 whole entry, species assumed): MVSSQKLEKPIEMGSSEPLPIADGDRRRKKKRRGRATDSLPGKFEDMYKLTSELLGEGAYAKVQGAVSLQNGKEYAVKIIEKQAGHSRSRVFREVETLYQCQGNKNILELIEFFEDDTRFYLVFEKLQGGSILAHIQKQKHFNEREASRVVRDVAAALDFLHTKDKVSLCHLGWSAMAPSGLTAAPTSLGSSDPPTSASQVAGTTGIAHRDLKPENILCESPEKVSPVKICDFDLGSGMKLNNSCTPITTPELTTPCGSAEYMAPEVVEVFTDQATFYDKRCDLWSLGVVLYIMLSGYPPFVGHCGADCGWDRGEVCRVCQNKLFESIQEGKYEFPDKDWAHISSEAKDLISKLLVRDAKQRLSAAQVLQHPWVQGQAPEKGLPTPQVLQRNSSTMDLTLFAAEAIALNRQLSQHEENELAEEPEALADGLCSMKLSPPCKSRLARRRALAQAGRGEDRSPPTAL
Experimental: as §1, §2

Aurora B = Aurora B (Homo sapiens, UniProt Q96GD4); conditions: read-out: Aurora B activity as percentage of control without inhibitor
Chain of Aurora B (Q96GD4 whole entry): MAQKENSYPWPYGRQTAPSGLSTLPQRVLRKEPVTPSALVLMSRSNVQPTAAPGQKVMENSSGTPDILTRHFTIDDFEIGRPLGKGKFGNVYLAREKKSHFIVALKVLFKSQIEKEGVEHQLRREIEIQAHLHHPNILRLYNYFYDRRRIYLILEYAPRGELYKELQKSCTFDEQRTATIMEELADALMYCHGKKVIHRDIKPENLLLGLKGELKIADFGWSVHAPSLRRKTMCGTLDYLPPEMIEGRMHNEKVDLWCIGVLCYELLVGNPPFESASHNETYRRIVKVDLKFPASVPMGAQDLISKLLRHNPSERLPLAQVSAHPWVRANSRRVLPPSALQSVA
Experimental: as §1, §2

Row | Compound | remaining activity at 1 µM (ERK8; inhibitor 1 μM) [%] | remaining activity at 10 µM (ERK8; inhibitor 10 μM) [%] | remaining activity at 1 µM (MNK2; inhibitor 1 μM) [%] | remaining activity at 10 µM (MNK2; inhibitor 10 μM) [%] | remaining activity at 1 µM (CAMK-1; inhibitor 1 μM) [%] | remaining activity at 10 µM (CAMK-1; inhibitor 10 μM) [%] | remaining activity at 1 µM (MST2; inhibitor 1 μM) [%] | remaining activity at 10 µM (MST2; inhibitor 10 μM) [%] | remaining activity at 1 µM (MNK1; inhibitor 1 μM) [%] | remaining activity at 10 µM (MNK1; inhibitor 10 μM) [%] | remaining activity at 1 µM (Aurora B; inhibitor 1 μM) [%] | remaining activity at 10 µM (Aurora B; inhibitor 10 μM) [%] | other results
1 | COc1ccc2c3c([nH]c2c1)C(C)=NCC3 [Harmaline] | 58 | 21 | 88 | 77 | 99 | 110 | 98 | 105 | 89 | 82 | 98 | 112 | –
2 | CC1=NCCc2c1[nH]c1cc(O)ccc21 [Harmalol] | 41 | 21 | 97 | 71 | 93 | 60 | 85 | 74 | 80 | 48 | 110 | 83 | –
3 | COc1ccc2c(c1)[nH]c1c(C)nccc12 [Harmine] | – | – | – | – | – | – | – | – | – | – | – | – | remaining activity at 1 µM (ERK8): 25%; remaining activity at 10 µM (ERK8): 19%; remaining activity at 1 µM (MNK2): 84%; remaining activity at 10 µM (MNK2): 98%; remaining activity at 1 µM (CAMK-1): 107%; remaining activity at 10 µM (CAMK-1): 94%; remaining activity at 1 µM (MST2): 91%; remaining activity at 10 µM (MST2): 81%; remaining activity at 1 µM (MNK1): 84%; remaining activity at 10 µM (MNK1): 52%; remaining activity at 1 µM (Aurora B): 100%; remaining activity at 10 µM (Aurora B): 102%
